Our source for the Kd values is patent US20240390508A1, “HUMAN TRANSFERRIN RECEPTOR BINDING PEPTIDE-DRUG CONJUGATE” (priority 2021, published 2024).

Structures are written as SMILES.

This assay has as its target transferrin receptor (hTfR) (Homo sapiens, UniProt P02786). Nature of the assay: Intermolecular interaction evaluation test between transferrin receptor (hTfR) and peptide-nucleic acid conjugate using surface plasmon resonance (SPR). The assay is classed as binding. On the procedure:
Intermolecular interaction evaluation test between transferrin receptor (hTfR) and peptide using surface plasmon resonance (SPR)
The various synthesized peptide-nucleic acid conjugates were tested for intermolecular interaction by surface plasmon resonance (SPR) of the peptide-nucleic acid conjugate with transferrin receptor (hTfR) using the method shown below. The specific test method is shown below.
NTA sensor chip (Global Life Science Technologies Japan Co., Ltd.) was inserted into Biacore T200 (Global Life Science Technologies Japan Co., Ltd.), prime operation was performed three times with running buffer: 10 mM HEPES pH 8.0 (Nacalai Tesque Co., Ltd.), 150 mM NaCl (Nacalai Tesque Co., Ltd.), 0.05% Tween 20 (Nacalai Tesque Co., Ltd.), 0.1% BSA (SIGMA-ALDRICH), and 1.0% DMSO (FUJIFILM Wako Pure Chemical Corporation), and equilibrated at a flow rate of 30 μL/min. 350 mM EDTA solution was reacted for 60 seconds at a flow rate of 10 μL/min, 0.5 mM NiCl2 solution (Kishida Chemical) was reacted for 60 seconds at a flow rate of 10 μL/min, and the NTA sensor chip was washed with 3 mM EDTA solution (Nacalai Tesque Co., Ltd.) for 60 seconds at a flow rate of 10 μL/min. After mixing 50 μL each of […] EDC solution (Global Life Science Technologies Japan Co., Ltd.) and […] NHS solution (Global Life Science Technologies Japan Co., Ltd.), the mixture was reacted for 420 seconds at a flow rate of 10 μL/min. 150 μL of a 0.5 μM hTfR solution was prepared by diluting with a running buffer and reacted for 300 seconds at a flow rate of 10 μL/min to immobilize hTfR on the NTA sensor chip. After immobilization, capping was performed by reacting with a 1.0 M ethanolamine aqueous solution (Global Life Science Technologies Japan Co., Ltd.) at a flow rate of 10 μL/min for 420 seconds. A peptide-nucleic acid conjugate solution adjusted to 10 mM in DMSO solution was diluted with running buffer to a final concentration of 10 μM peptide-nucleic acid conjugate solution, and 100 nM, 50 nM, 25 nM, 10 nM, 5 nM peptide-nucleic acid conjugate solutions were prepared. Using the aforementioned samples, the kinetics of the peptide against hTfR was obtained by SPR measurement.
The kinetics evaluation model was Single Cycle Kinetics, and curve fitting was performed using Biacore T200 Evaluation Software Version 3.0 (Global Life Science Technologies Japan Co., Ltd.). The obtained sensorgram was subjected to curve fitting using the least squares method, and the binding of the peptide-nucleic acid conjugate to hTfR was evaluated by determining the KD value.
On the technique in general: SPR reads the build-up and loss of mass on a sensor chip optically.

Chain of transferrin receptor (hTfR) (P02786 whole entry): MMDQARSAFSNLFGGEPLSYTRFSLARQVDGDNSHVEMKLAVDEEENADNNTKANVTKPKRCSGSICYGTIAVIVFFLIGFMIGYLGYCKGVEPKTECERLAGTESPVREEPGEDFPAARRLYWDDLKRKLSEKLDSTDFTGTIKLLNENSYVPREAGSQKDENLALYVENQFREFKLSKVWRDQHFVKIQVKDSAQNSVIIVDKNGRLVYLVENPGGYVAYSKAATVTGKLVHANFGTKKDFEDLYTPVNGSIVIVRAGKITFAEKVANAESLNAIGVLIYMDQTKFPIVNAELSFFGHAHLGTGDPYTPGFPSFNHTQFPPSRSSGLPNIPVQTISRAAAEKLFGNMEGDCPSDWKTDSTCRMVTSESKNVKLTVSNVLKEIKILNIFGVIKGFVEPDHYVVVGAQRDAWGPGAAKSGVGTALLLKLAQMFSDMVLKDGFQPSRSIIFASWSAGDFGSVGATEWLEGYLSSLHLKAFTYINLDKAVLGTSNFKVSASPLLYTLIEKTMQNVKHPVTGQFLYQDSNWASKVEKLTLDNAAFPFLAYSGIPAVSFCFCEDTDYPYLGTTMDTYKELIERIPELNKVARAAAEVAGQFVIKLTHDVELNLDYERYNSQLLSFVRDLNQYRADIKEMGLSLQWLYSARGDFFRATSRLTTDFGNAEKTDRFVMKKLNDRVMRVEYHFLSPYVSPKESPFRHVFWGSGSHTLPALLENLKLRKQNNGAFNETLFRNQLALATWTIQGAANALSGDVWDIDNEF

A word on the Kd: it is the constant that tells how readily two partners part at equilibrium. In the case of `CC[C@H](C)[C@@H]1NC(=O)[C@H](Cc2ccc(O)cc2)NC(=O)[C@H](Cc2ccc(O)cc2)NC(=O)[C@H](CC(N)=O)NC(=O)[C@H](Cc2c[nH]c3ccccc23)NC(=O)[C@H](C(C)C)NC(=O)[C@H](Cc2ccccc2)N(C)C(=O)[C@H](C(C)C)NC(=O)[C@H](C)NC(=O)CSC[C@@H](C(=O)NCC(=O)N[C@@H](CCCCn2cc(CCC(=O)NCCOCCOCC(=O)N[C@@H](CCCNC(=N)N)C(=O)N[C@@H](CCCNC(=N)N)C(=O)N[C@@H](CCCNC(=N)N)C(=O)NCC(=O)N3C[C@@H](COP(=O)(N(C)C)N4C[C@@H](COP(=O)(N(C)C)N5C[C@@H](COP(=O)(N(C)C)N6C[C@@H](COP(=O)(N(C)C)N7C[C@@H](COP(=O)(N(C)C)N8C[C@@H](COP(=O)(N(C)C)N9C[C@@H](COP(=O)(N(C)C)N%10C[C@@H](COP(=O)(N(C)C)N%11C[C@@H](COP(=O)(N(C)C)N%12C[C@@H](COP(=O)(N(C)C)N%13C[C@@H](COP(=O)(N(C)C)N%14C[C@@H](COP(=O)(N(C)C)N%15C[C@@H](COP(=O)(N(C)C)N%16C[C@@H](COP(=O)(N(C)C)N%17C[C@@H](COP(=O)(N(C)C)N%18C[C@@H](COP(=O)(N(C)C)N%19C[C@@H](COP(=O)(N(C)C)N%20C[C@@H](COP(=O)(N(C)C)N%21C[C@@H](COP(=O)(N(C)C)N%22C[C@@H](COP(=O)(N(C)C)N%23C[C@@H](COP(=O)(N(C)C)N%24C[C@@H](COP(=O)(N(C)C)N%25C[C@@H](COP(=O)(N(C)C)N%26C[C@@H](COP(=O)(N(C)C)N%27C[C@@H](COP(=O)(N(C)C)N(C)CC(N)=O)O[C@@H](n%28cnc%29c(=O)[nH]c(N)nc%29%28)C%27)O[C@@H](n%27cnc%28c(=O)[nH]c(N)nc%28%27)C%26)O[C@@H](n%26ccc(N)nc%26=O)C%25)O[C@@H](n%25ccc(N)nc%25=O)C%24)O[C@@H](n%24cnc%25c(N)ncnc%25%24)C%23)O[C@@H](n%23cnc%24c(N)ncnc%24%23)C%22)O[C@@H](n%22cnc%23c(N)ncnc%23%22)C%21)O[C@@H](n%21ccc(N)nc%21=O)C%20)O[C@@H](n%20ccc(N)nc%20=O)C%19)O[C@@H](n%19cc(C)c(=O)[nH]c%19=O)C%18)O[C@@H](n%18ccc(N)nc%18=O)C%17)O[C@@H](n%17cnc%18c(=O)[nH]c(N)nc%18%17)C%16)O[C@@H](n%16cnc%17c(=O)[nH]c(N)nc%17%16)C%15)O[C@@H](n%15ccc(N)nc%15=O)C%14)O[C@@H](n%14cc(C)c(=O)[nH]c%14=O)C%13)O[C@@H](n%13cc(C)c(=O)[nH]c%13=O)C%12)O[C@@H](n%12cnc%13c(N)ncnc%13%12)C%11)O[C@@H](n%11ccc(N)nc%11=O)C%10)O[C@@H](n%10ccc(N)nc%10=O)C9)O[C@@H](n9cc(C)c(=O)[nH]c9=O)C8)O[C@@H](n8cnc9c(=O)[nH]c(N)nc98)C7)O[C@@H](n7cnc8c(N)ncnc87)C6)O[C@@H](n6cnc7c(N)ncnc76)C5)O[C@@H](n5cnc6c(N)ncnc65)C4)O[C@@H](n4cc(C)c(=O)[nH]c4=O)C3)nn2)C(N)=O)NC(=O)[C@H](Cc2ccc(O)cc2)N(C)C(=O)[C@H](Cc2ccc(O)cc2)NC(=O)[C@H](CCCNC(=N)N)NC(=O)[C@H](CCCNC(=N)N)NC(=O)[C@H]([C@@H](C)CC)NC1=O` (some centres unmarked) [Example 60], the Kd was under 100 nM.
Under `CC[C@H](C)[C@@H]1NC(=O)[C@H](Cc2ccc(O)cc2)NC(=O)[C@H](Cc2ccc(O)cc2)NC(=O)[C@H](CC(N)=O)NC(=O)[C@H](Cc2c[nH]c3ccccc23)NC(=O)[C@H](C(C)C)NC(=O)[C@H](Cc2ccccc2)N(C)C(=O)[C@H](C(C)C)NC(=O)[C@H](C)NC(=O)CSC[C@@H](C(=O)NCC(=O)N[C@@H](CCCCn2cc(CCC(=O)NCCOCCOCC(=O)N[C@@H](CCCCN)C(=O)N[C@@H](CCCCN)C(=O)N[C@@H](CCCCN)C(=O)NCC(=O)N3C[C@@H](COP(=O)(N(C)C)N4C[C@@H](COP(=O)(N(C)C)N5C[C@@H](COP(=O)(N(C)C)N6C[C@@H](COP(=O)(N(C)C)N7C[C@@H](COP(=O)(N(C)C)N8C[C@@H](COP(=O)(N(C)C)N9C[C@@H](COP(=O)(N(C)C)N%10C[C@@H](COP(=O)(N(C)C)N%11C[C@@H](COP(=O)(N(C)C)N%12C[C@@H](COP(=O)(N(C)C)N%13C[C@@H](COP(=O)(N(C)C)N%14C[C@@H](COP(=O)(N(C)C)N%15C[C@@H](COP(=O)(N(C)C)N%16C[C@@H](COP(=O)(N(C)C)N%17C[C@@H](COP(=O)(N(C)C)N%18C[C@@H](COP(=O)(N(C)C)N%19C[C@@H](COP(=O)(N(C)C)N%20C[C@@H](COP(=O)(N(C)C)N%21C[C@@H](COP(=O)(N(C)C)N%22C[C@@H](COP(=O)(N(C)C)N%23C[C@@H](COP(=O)(N(C)C)N%24C[C@@H](COP(=O)(N(C)C)N%25C[C@@H](COP(=O)(N(C)C)N%26C[C@@H](COP(=O)(N(C)C)N%27C[C@@H](COP(=O)(N(C)C)N(C)CC(N)=O)O[C@@H](n%28cnc%29c(=O)[nH]c(N)nc%29%28)C%27)O[C@@H](n%27cnc%28c(=O)[nH]c(N)nc%28%27)C%26)O[C@@H](n%26ccc(N)nc%26=O)C%25)O[C@@H](n%25ccc(N)nc%25=O)C%24)O[C@@H](n%24cnc%25c(N)ncnc%25%24)C%23)O[C@@H](n%23cnc%24c(N)ncnc%24%23)C%22)O[C@@H](n%22cnc%23c(N)ncnc%23%22)C%21)O[C@@H](n%21ccc(N)nc%21=O)C%20)O[C@@H](n%20ccc(N)nc%20=O)C%19)O[C@@H](n%19cc(C)c(=O)[nH]c%19=O)C%18)O[C@@H](n%18ccc(N)nc%18=O)C%17)O[C@@H](n%17cnc%18c(=O)[nH]c(N)nc%18%17)C%16)O[C@@H](n%16cnc%17c(=O)[nH]c(N)nc%17%16)C%15)O[C@@H](n%15ccc(N)nc%15=O)C%14)O[C@@H](n%14cc(C)c(=O)[nH]c%14=O)C%13)O[C@@H](n%13cc(C)c(=O)[nH]c%13=O)C%12)O[C@@H](n%12cnc%13c(N)ncnc%13%12)C%11)O[C@@H](n%11ccc(N)nc%11=O)C%10)O[C@@H](n%10ccc(N)nc%10=O)C9)O[C@@H](n9cc(C)c(=O)[nH]c9=O)C8)O[C@@H](n8cnc9c(=O)[nH]c(N)nc98)C7)O[C@@H](n7cnc8c(N)ncnc87)C6)O[C@@H](n6cnc7c(N)ncnc76)C5)O[C@@H](n5cnc6c(N)ncnc65)C4)O[C@@H](n4cc(C)c(=O)[nH]c4=O)C3)nn2)C(N)=O)NC(=O)[C@H](Cc2ccc(O)cc2)N(C)C(=O)[C@H](Cc2ccc(O)cc2)NC(=O)[C@H](CCCNC(=N)N)NC(=O)[C@H](CCCNC(=N)N)NC(=O)[C@H]([C@@H](C)CC)NC1=O` (some centres unmarked) [Example 61] stands under 100 nM.
